Measurements as given in patent US20030013660A1, “Dioxolane analogs for improved inter-cellular delivery” (Shire BioChem Inc., priority 2000, published 2003).

Columns and labels:
CEM cells = test: CellTiter 96 cell proliferation assay (chemosensitivity), 48 h; type: cell-based
Method: (§1) The chemosensitivity of suspension cells lines (e.g., CEM or CEM-derivatives) is assessed using the CellTiter 96 ? proliferation assay. […] Adherent cell lines (e.g., DU145 or DU145^R) are seeded (^˜10^5 cells) in triplicate dishes, 24 h before drug exposure. Growth inhibition is determined by trypsinization and counting cells electronically.

CEM/ARAC8C cells = test: as above; type: cell-based; conditions: read-out: EC50 (50% of the dose response curve); CEM/ARAC8C cells, 48 h exposure
Method: as §1

CEM/dCK cells = test: as above; type: cell-based; conditions: read-out: EC50 (50% of the dose response curve), 48 h exposure
Method: as §1

hCNT3 = target: T1, hCNT3 (Homo sapiens, UniProt Q9HAS3); conditions: 100-fold non-radioactive troxacitabine, differentiated HL-60
T1 sequence (Q9HAS3 1-691): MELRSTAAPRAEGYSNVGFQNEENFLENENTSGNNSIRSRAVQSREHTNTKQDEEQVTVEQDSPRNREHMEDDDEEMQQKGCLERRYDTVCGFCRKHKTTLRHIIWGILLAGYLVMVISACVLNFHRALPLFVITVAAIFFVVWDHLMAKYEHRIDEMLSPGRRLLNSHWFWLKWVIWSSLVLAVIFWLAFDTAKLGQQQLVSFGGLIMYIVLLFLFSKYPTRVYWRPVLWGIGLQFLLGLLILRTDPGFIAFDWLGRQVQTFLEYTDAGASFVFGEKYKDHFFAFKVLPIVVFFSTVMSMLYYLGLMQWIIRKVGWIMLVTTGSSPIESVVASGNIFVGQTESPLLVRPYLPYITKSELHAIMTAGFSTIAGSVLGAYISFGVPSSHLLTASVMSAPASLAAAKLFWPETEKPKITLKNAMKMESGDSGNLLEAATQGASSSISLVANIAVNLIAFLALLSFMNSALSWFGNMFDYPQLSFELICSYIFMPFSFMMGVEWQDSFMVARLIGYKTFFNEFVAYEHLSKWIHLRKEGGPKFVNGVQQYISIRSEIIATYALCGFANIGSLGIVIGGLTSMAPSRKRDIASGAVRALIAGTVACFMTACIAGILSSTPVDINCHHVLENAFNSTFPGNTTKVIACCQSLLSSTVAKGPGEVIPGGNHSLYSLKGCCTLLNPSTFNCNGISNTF
From the text: The ability of a high concentration (100-fold) of non-radioactive troxacitabine to inhibit the uptake of ^3H]uridine by hCNT3 was examined in a differentiated HL-60 model system [Ritzel et al. (2000), supra].

hENT2 = target: T2, hENT2 (Homo sapiens, UniProt Q14542)
T2 sequence (Q14542 1-456): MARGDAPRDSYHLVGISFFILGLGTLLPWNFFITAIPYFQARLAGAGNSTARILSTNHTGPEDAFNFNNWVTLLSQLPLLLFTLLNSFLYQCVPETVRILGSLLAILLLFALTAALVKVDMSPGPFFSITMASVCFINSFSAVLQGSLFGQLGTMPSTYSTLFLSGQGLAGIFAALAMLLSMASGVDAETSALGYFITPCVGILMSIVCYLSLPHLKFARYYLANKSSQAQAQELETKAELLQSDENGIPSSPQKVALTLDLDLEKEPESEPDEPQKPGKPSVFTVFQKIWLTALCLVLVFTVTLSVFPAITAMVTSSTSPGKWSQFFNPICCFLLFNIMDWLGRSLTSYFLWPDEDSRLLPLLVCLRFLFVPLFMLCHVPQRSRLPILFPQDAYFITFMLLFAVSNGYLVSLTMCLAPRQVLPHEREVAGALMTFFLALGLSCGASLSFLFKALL
Method: B.Uptake of [^3H]troxacitabine either in the absence ( ? ) or presence of 100 nM NBMPR (▴), 100 μM dilazep (▾), 1 mM non-radioactive troxacitabine (♦) or 20 μM dipyridamole (●), using an expanded scale of 0-15 pmol/10^6 cells. Each data point represents the mean (±standard deviation) of three determinations.
Briefly, for adherent cells, uptake assays are conducted at room temperature under zero-trans conditions in either sodium-containing transport buffer (20 mM Tris/HCl, 3 mM K2HPO4, 1 mM MgCl2.6H2O, 2 mM CaCl2, 5 mM glucose and 130 mM NaCl, pH 7.4, 300±15 mOsm) or sodium-free transport buffer with NaCl replaced by N-methyl-D-glucamine. […] After the plates are drained, the cells are lysed with 5% Triton X-100 and mixed with Ecolite scintillation fluid to measure the cell-associated radioactivity (Beckman LS 6500 scintillation counter; Beckman-Coulter Canada, Mississauga, ON). Uptake at the zero time-point is determined by treating cells for 10 min at 4° C. with transport buffer containing 100 μM dilazep, then adding the radioactive nucleoside for 2 s before reaction termination as described above. […] Uptake at the zero time-point is determined by adding cells to cold transport buffer containing radiolabeled permeant and dilazep, and immediate centrifugation. Cell pellets are lysed and cell-associated radioactivity measured. […]

hENT1 = target: T3, hENT1 (Homo sapiens, UniProt Q99808); test: Cellular uptake assay of [3H]nucleoside in DU145 cells, with or without NBMPR or excess non-radioactive troxacitabine; type: in vitro ADME; set-up: The presence of functional es-mediated transport (hENT1) in DU145 cells; endogenous in cells; host or cells: DU145 cells
T3 sequence (Q99808 1-456): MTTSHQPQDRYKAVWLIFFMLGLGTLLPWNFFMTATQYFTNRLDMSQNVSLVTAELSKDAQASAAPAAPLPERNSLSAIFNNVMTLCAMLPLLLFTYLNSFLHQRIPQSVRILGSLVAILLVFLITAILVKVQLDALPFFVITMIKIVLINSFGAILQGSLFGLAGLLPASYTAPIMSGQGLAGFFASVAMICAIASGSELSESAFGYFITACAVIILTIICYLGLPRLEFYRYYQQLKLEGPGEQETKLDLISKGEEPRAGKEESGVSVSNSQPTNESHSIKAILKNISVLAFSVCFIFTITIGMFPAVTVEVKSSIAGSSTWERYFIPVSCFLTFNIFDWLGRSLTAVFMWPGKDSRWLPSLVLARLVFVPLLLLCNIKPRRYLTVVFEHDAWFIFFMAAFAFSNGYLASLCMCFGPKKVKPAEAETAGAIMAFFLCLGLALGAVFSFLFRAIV
Method: Cancer Res., 56: 4187-4191.
This experiment is designed to show whether [^3H]L-troxacitabine (10 μM) is taken up by DU145 cells and if the rate of uptake is affected by the addition of high concentrations (1 mM) of non-radioactive troxacitabine.

- effect on [3H]uridine uptake by hCNT3 (hCNT3): no effect on uridine uptake
- inhibition of uptake by NBMPR, dilazep, dipyridamole or excess non-radioactive troxacitabine (hENT2): no substantial inhibition
- effect of NBMPR on uptake (hENT1): not affected
- level of [3H] uptake (hENT1): low levels
- effect of non-radioactive troxacitabine (1 mM) on uptake (hENT1; 10 μM [3H]L-troxacitabine): no significant effect
- rate of uptake (hENT1; 10 μM, short (0-30s) and prolonged exposures (0-4 h)): very slow
Compound: Nc1ccn([C@@H]2CO[C@H](CO)O2)c(=O)n1 [Troxacitabine, troxacitabine]
- EC50 (CEM cells; Homo sapiens, CCRF-CEM, read-out: EC50 (50% of the dose response curve), CEM cells, 48 h exposure): 160 nM
- effect of the es transport inhibitor NBMPR on resistance of CEM cells (CEM cells; presence of NBMPR): not
- EC50 (CEM/ARAC8C cells): 1180 nM
- EC50 (CEM/dCK cells): > 100000 nM
